Laboratory results: patent US10912840B2, “Conjugates for treating diseases caused by PSMA expressing cells” (priority 2012, dated 2021)
Entries after “also recorded” stand apart in the source; their conditions may differ. Like-named read-outs stand apart in the source and are kept apart here.

Legend:
PSMA = biological target: T1, PSMA (Homo sapiens, UniProt Q04609); format: binding
T1 construct: endogenous in cells; host or cells: LNCaP cells
Experimental: PSMA relative affinity assay. LNCaP cells are seeded in 12-well Corning Cell-BIND plates and allowed to form adherent monolayers overnight in RPMI/HIFCS. Spent incubation media is replaced with RPMI supplemented with 10% HIFCS and containing a standard PSMA binding ligand, such as 100 nM of 3H-PMPA or a competing compound, such as EC0652, Re-EC652, or ^99mTc-EC0652, in the absence and presence of increasing concentrations of test compound, such as unlabeled PMPA, or a compound described herein, such as EC1169 or EC1568, a negative control intermediate lacking a PSMA binding ligand which is used as a negative control. Cells are incubated for 1 h at 37° C. and then rinsed three times with 0.5 mL of PBS. Five hundred microliters of 1% sodium dodecylsulfate in PBS are added to each well; after 5 min, cell lysates are collected, transferred to individual tubes or to vials containing 5 mL of scintillation cocktail, and then counted for radioactivity. Cells exposed to only the standard PSMA binding ligand, such as 3H-PMPA, or competing compound, such as ^99mTc-EC0652, in FFRPMI (no competitor) are designated as negative controls, whereas cells exposed to the standard PSMA binding ligand, such as 3H-PMPA, plus 1 mM unlabeled PMPA or competing compound, such as ^99mTc-EC0652 plus Re-EC0652, serve as positive controls. Disintegrations per minute (DPMs) measured in the latter samples (representing nonspecific binding of label) are subtracted from the DPM values from all samples. Relative affinities are defined as the inverse molar ratio of compound required to displace 50% of the standard PSMA binding ligand, such as ^3H-PMPA, or the competing compound, such as ^99mTc-EC0652, bound to PSMA on LNCaP cells, and the relative affinity of the standard PSMA binding ligand, such as PMPA, or the competing compound, such as Re-EC0652, for PSMA is set to 1.

[1] = Gross toxicity (body weight change) in LNCaP tumor-bearing mice
Experimental: Four to seven week-old male nu/nu mice (Harlan Sprague Dawley. Inc., Indianapolis, Ind.) are maintained on a standard 12 h light-dark cycle and fed ad libitum with rodent diet #2918 (Harlan Teklad, Madison, Wis.) for the duration of the experiment. LNCaP cells are grown in RPMI in 10% HIFCS at 37° C. in a 5% CO2/95% air-humidified atmosphere, harvested and resuspended on ice in matrigel solution (50% RPMI+50% matrigel high concentration. BD#354248) to a final concentration of 1×10^6 cells/50 μL. Cell solution and injection needles (28 gauge) are kept on ice prior to injection and 50 μL of the cell solution injected in the subcutis of the dorsal medial area. Mice are divided into groups of five, seven, or nine, and freshly prepared test compound solutions are injected through the lateral tail vein under sterile conditions in a volume of 200 μL of phosphate-buffered saline (PBS). […] Growth of each s.c. tumor is followed by measuring the tumor three times per week during treatment and twice per week thereafter, until a volume of 1500 mm^3 is reached. Tumors are measured in two perpendicular directions using Vernier calipers, and their volumes are calculated as 0.5×L×W^2, where L=measurement of longest axis in mm and W=measurement of axis perpendicular to L in mm. As a general measure of gross toxicity, changes in body weights are determined on the same schedule as tumor volume measurements. Maximum % weight loss on any given day due to treatment is determined for each mouse. Survival of animals is monitored daily. Animals that are moribund (or unable to reach food or water) are euthanized by CO2 asphyxiation.

[2] = tested on: PSMA-positive LNCaP human xenografts; test: Activity in vivo against PSMA+ tumor implanted in mice; settings: for tumor growth in vivo compared to untreated animals / cures (cured/tested animals; no tumor growth during entire observation period): 2 μmol/kg, LNCaP xenografts; for tumor growth in vivo compared to untreated animals: TIW for 2 weeks, beginning on day 21 post tumor implant; for cures (cured/tested animals; no tumor growth during entire observation period): TIW
Excerpt: Survival of animals is monitored daily.

[3] = format: in vivo; settings: rats, i.v., 0.33 and 0.51 μmol/kg, BIW, 2 weeks
LNCaP cells = settings: human
Experimental: LNCaP cells are seeded in 24-well Corning Cell-BIND plates and allowed to form nearly confluent monolayers overnight in RPMI/HIFCS. Thirty minutes prior to the addition of test compound, such as a compound described herein, spent medium is aspirated from all wells and replaced with fresh RPMI. Following one rinse with 1 mL of fresh RPMI/HIFCS, each well receives 1 mL of media containing increasing concentrations of test compound (four wells per sample). Test compound treated cells are pulsed for 2 h at 37° C., rinsed four times with 0.5 mL of media, and then chased in 1 mL of fresh media up to 70 h. Spent media is aspirated from all wells and replaced with fresh media containing 5 μCi/mL ^3H-thymidine. Following a further 4 h 37° C. incubation, cells are washed three times with 0.5 mL of PBS and then treated with 0.5 mL of ice-cold 5% trichloroacetic acid per well. After 15 min, the trichloroacetic acid is aspirated and the cells are solubilized by the addition of 0.5 mL of 0.25 N sodium hydroxide for 15 min. Four hundred and fifty microliters of each solubilized sample is transferred to scintillation vials containing 3 mL of Ecolume scintillation cocktail and then counted in a liquid scintillation counter. Final tabulated results are expressed as the percentage of ^3H-thymidine incorporation relative to untreated controls.

[4] = PMPA = 1.0 (normalized), in 10% serum/FDRPMI
[5] = 10 mg/kg, BIW, 2 weeks, MTD, LNCaP-tumor bearing mice

T1 sequence (Q04609 whole entry): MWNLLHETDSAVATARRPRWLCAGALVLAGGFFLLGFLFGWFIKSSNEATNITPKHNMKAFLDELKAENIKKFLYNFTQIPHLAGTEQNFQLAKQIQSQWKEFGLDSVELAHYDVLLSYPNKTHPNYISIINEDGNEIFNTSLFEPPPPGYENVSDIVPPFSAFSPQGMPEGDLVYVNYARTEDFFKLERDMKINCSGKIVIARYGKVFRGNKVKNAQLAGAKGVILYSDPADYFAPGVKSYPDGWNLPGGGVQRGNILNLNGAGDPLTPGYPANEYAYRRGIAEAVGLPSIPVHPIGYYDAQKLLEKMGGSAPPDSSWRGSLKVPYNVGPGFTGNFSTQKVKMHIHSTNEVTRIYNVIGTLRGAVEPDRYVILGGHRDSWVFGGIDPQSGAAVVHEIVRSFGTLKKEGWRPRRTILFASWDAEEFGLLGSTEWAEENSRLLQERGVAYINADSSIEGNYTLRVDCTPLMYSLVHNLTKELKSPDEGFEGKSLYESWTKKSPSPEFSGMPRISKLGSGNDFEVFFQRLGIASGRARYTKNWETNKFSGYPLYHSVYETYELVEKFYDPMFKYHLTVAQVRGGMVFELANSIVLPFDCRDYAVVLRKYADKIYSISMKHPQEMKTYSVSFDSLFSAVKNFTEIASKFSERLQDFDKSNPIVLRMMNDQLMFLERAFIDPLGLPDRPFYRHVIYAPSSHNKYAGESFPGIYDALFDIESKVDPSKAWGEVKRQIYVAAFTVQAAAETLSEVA

## O=C(O)CC[C@H](NC(=O)N[C@@H](CCCCNC(=O)NCc1ccc(CC(=O)N[C@@H](CC(=O)O)C(=O)N[C@@H](CC(=O)O)C(=O)N[C@@H](CS)C(=O)O)cc1)C(=O)O)C(=O)O [EC1167]
PSMA
  Relative PSMA Binding Affinity (fold over PMPA = 1.0): 11 fold

## CCCOCN(C(=O)[C@@H](NC(=O)[C@H]1CCCCN1C)[C@@H](C)CC)[C@H](C[C@@H](OC(C)=O)c1nc(C(=O)N[C@@H](Cc2ccc(O)cc2)C[C@H](C)C(=O)NNC(=O)OCCSSC[C@H](NC(=O)[C@H](CC(=O)O)NC(=O)[C@H](CC(=O)O)NC(=O)Cc2ccc(CNC(=O)NCCCC[C@H](NC(=O)N[C@@H](CCC(=O)O)C(=O)O)C(=O)O)cc2)C(=O)O)cs1)C(C)C [EC1718]
[1]; 2 μmol/kg, TIW, 2 weeks
  gross animal toxicity (weight loss, major organ tissue degeneration): do not exhibit gross animal toxicity
[2]
  tumor growth in vivo compared to untreated animals: efficacious in decreasing tumor growth
[2]; 2 weeks
  cures (cured/tested animals; no tumor growth during entire observation period): 1/7
other
  IC50: 17.9 nM

## CCCC(=O)OCN(C(=O)[C@@H](NC(=O)[C@H]1CCCCN1C)C(C)CC)[C@H](C[C@@H](OC(C)=O)c1nc(C(=O)N[C@@H](Cc2ccc(O)cc2)C[C@H](C)C(=O)NNC(=O)OCCSSC[C@H](NC(=O)[C@@H](CC(=O)O)NC(=O)[C@@H](CC(=O)O)NC(=O)Cc2ccc(CNC(=O)NCCCC[C@H](NC(=O)N[C@@H](CCC(=O)O)C(=O)O)C(=O)O)cc2)C(=O)O)cs1)C(C)C (stereo partly shown) [EC1308]
PSMA
  Relative PSMA Binding Affinity (fold over PMPA = 1.0): 20 fold

## O=C(O)CC[C@H](CP(=O)(O)O)C(=O)O [PMPA, reference compound]
PSMA
  relative affinity for PSMA: 1.0 ×

## O=C(O)CC[C@H](NC(=O)N[C@@H](CCCCNC(=O)NCc1ccc(CC(=O)N[C@@H](CC(=O)O)C(=O)N[C@@H](CC(=O)O)C(=O)NCC(=O)O)cc1)C(=O)O)C(=O)O [EC1168]
PSMA
  Relative PSMA Binding Affinity (fold over PMPA = 1.0): 17 fold
PSMA; [4]
  relative affinity for PSMA: 17 ×

## CCCCOCN(C(=O)[C@@H](NC(=O)[C@H]1CCCCN1C)[C@@H](C)CC)[C@H](C[C@@H](OC(C)=O)c1nc(C(=O)N[C@@H](Cc2ccc(O)cc2)C[C@H](C)C(=O)NNC(=O)OCCSSC[C@H](NC(=O)[C@H](CC(=O)O)NC(=O)[C@H](CC(=O)O)NC(=O)Cc2ccc(CNC(=O)NCCCC[C@H](NC(=O)N[C@@H](CCC(=O)O)C(=O)O)C(=O)O)cc2)C(=O)O)cs1)C(C)C [EC1677]
[1]; 2 μmol/kg, TIW, 2 weeks
  gross animal toxicity (weight loss, major organ tissue degeneration): do not exhibit gross animal toxicity
[2]
  tumor growth in vivo compared to untreated animals: efficacious in decreasing tumor growth
[2]; 2 weeks
  cures (cured/tested animals; no tumor growth during entire observation period): 4/7
other
  IC50: 20.9 nM

## CCCC(=O)OCN(C(=O)[C@@H](NC(=O)[C@H]1CCCCN1C)C(C)CC)[C@H](C[C@@H](OC(C)=O)c1nc(C(=O)N[C@@H](Cc2ccc(O)cc2)C[C@H](C)C(=O)NNC(=O)OCCSSC[C@H](NC(=O)[C@H](CC(=O)O)NC(=O)[C@H](CC(=O)O)NC(=O)Cc2ccc(CNC(=O)NCCCC[C@H](NC(=O)N[C@@H](CCC(=O)O)C(=O)O)C(=O)O)cc2)C(=O)O)cs1)C(C)C (stereo partly shown) [EC1169]
[3]
  hematological toxicity in red blood cells and white blood cells: significantly lower than untreated controls
[1]; 2 μmol/kg, TIW, 2 weeks
  gross animal toxicity (weight loss, major organ tissue degeneration): absence of weight loss or major organ tissue degeneration
[1]; 2 μmol/kg, TIW, 2 weeks vs docetaxel 10 mg/kg, BIW, MTD
  gross toxicity compared to docetaxel: substantially less gross animal toxicity compared to docetaxel; also recorded: less toxic than docetaxel
[1]; 2 μmol/kg, TIW, 2 weeks, listed as EC169
  gross animal toxicity (weight loss, major organ tissue degeneration): do not exhibit gross animal toxicity
LNCaP cells
  IC50: 13 nM

## CCCC(=O)OCN(C(=O)[C@@H](NC(=O)[C@H]1CCCCN1C)C(C)CC)[C@H](C[C@@H](OC(C)=O)c1nc(C(=O)N[C@@H](Cc2ccc(O)cc2)C[C@H](C)C(=O)NNC(=O)OCCSSC[C@H](NC(=O)[C@H](CC(=O)O)NC(=O)[C@H](CCCNC(=N)N)NC(=O)Cc2ccc(CNC(=O)NCCCC[C@H](NC(=O)N[C@@H](CCC(=O)O)C(=O)O)C(=O)O)cc2)C(=O)O)cs1)C(C)C (stereo partly shown) [EC1310]
PSMA
  Relative PSMA Binding Affinity (fold over PMPA = 1.0): 10 fold

## CCCCCCOCN(C(=O)[C@@H](NC(=O)[C@H]1CCCCN1C)C(C)CC)[C@H](C[C@@H](OC(C)=O)c1nc(C(=O)N[C@@H](Cc2ccc(O)cc2)C[C@H](C)C(=O)NNC(=O)OCCSSC[C@H](NC(=O)[C@H](CC(=O)O)NC(=O)[C@H](CC(=O)O)NC(=O)Cc2ccc(CNC(=O)NCCCC[C@H](NC(=O)N[C@@H](CCC(=O)O)C(=O)O)C(=O)O)cc2)C(=O)O)cs1)C(C)C (stereo partly shown) [EC1720]
[1]; 2 μmol/kg, TIW, 2 weeks
  gross animal toxicity (weight loss, major organ tissue degeneration): do not exhibit gross animal toxicity
LNCaP cells
  IC50: 54.2 nM

## CC(=O)O[C@@]12CO[C@@H]1C[C@H](O)[C@@]1(C)C(=O)[C@H](O)C3=C(C)[C@@H](OC(=O)[C@H](O)[C@@H](NC(=O)OC(C)(C)C)c4ccccc4)C[C@@](O)([C@@H](OC(=O)c4ccccc4)[C@H]21)C3(C)C [docetaxel, reference compound]
[1]; 10 mg/kg, BIW, 2 weeks, MTD
  gross toxicity: high gross toxicity
  weight loss: 18%
[2]; [5]
  anti-tumor activity: only modest anti-tumor activity
  cures (cured/tested animals): 1/4

## O=C(O)CC[C@H](NC(=O)N[C@@H](CCC(=O)O)C(=O)O)C(=O)O [DUPA, reference compound]
PSMA
  relative affinity for PSMA: 0.05 ×

## CCCCCCCOCN(C(=O)[C@@H](NC(=O)[C@H]1CCCCN1C)C(C)CC)[C@H](C[C@@H](OC(C)=O)c1nc(C(=O)N[C@@H](Cc2ccc(O)cc2)C[C@H](C)C(=O)NNC(=O)OCCSSC[C@H](NC(=O)[C@H](CC(=O)O)NC(=O)[C@H](CC(=O)O)NC(=O)Cc2ccc(CNC(=O)NCCCC[C@H](NC(=O)N[C@@H](CCC(=O)O)C(=O)O)C(=O)O)cc2)C(=O)O)cs1)C(C)C (stereo partly shown) [EC1721]
[1]; 2 μmol/kg, TIW, 2 weeks
  gross animal toxicity (weight loss, major organ tissue degeneration): do not exhibit gross animal toxicity
LNCaP cells
  IC50: 65.6 nM

## O=C(O)CC[C@H](NC(=O)N[C@@H](CCCCNC(=O)Nc1ccc(CC(=O)N[C@@H](CC(=O)O)C(=O)N[C@@H](CC(=O)O)C(=O)N[C@@H](CS)C(=O)O)cc1)C(=O)O)C(=O)O [EC1067]
PSMA
  Relative PSMA Binding Affinity (fold over PMPA = 1.0): 30 fold
PSMA; [4]
  relative affinity for PSMA: 30 ×

## CCCCCOCN(C(=O)[C@@H](NC(=O)[C@H]1CCCCN1C)[C@@H](C)CC)[C@H](C[C@@H](OC(C)=O)c1nc(C(=O)N[C@@H](Cc2ccc(O)cc2)C[C@H](C)C(=O)NNC(=O)OCCSSC[C@H](NC(=O)[C@H](CC(=O)O)NC(=O)[C@H](CC(=O)O)NC(=O)Cc2ccc(CNC(=O)NCCCC[C@H](NC(=O)N[C@@H](CCC(=O)O)C(=O)O)C(=O)O)cc2)C(=O)O)cs1)C(C)C [EC1719]
[1]; 2 μmol/kg, TIW, 2 weeks
  gross animal toxicity (weight loss, major organ tissue degeneration): do not exhibit gross animal toxicity
[2]
  tumor growth in vivo compared to untreated animals: efficacious in decreasing tumor growth
[2]; 2 weeks
  cures (cured/tested animals; no tumor growth during entire observation period): 2/7
other
  IC50: 37.5 nM

## CCCC(=O)OCN(C(=O)[C@@H](NC(=O)[C@H]1CCCCN1C)C(C)CC)[C@H](C[C@@H](OC(C)=O)c1nc(C(=O)N[C@@H](Cc2ccc(O)cc2)C[C@H](C)C(=O)NNC(=O)OCCSSC[C@H](NC(=O)[C@H](Cc2ccccc2)NC(=O)[C@H](CC(=O)O)NC(=O)NCCCC[C@H](NC(C)=O)C(=O)O)C(=O)O)cs1)C(C)C (stereo partly shown) [EC1568, reference compound]
PSMA
  Relative PSMA Binding Affinity (fold over PMPA = 1.0): 0 fold

## O=C(O)CC[C@H](NC(=O)N[C@@H](CCCCNC(=O)Nc1ccc(CC(=O)O)cc1)C(=O)O)C(=O)O [EC1080]
PSMA
  Relative PSMA Binding Affinity (fold over PMPA = 1.0): 6 fold
PSMA; [4]
  relative affinity for PSMA: 6 ×
